According to patent publication US20090069315A1, “Use of Pyrazolo(1,5A)Pyrimidin-7-YL Amine Derivatives in the Treatment of Neurological Disorders” (priority 2006, published 2009):

Tests used:
EphA4 [1] = target: T1, EphA4 (Mus musculus, UniProt Q03137); test: Proof of mechanism: EphA4 phosphorylation in mouse brain after dosing; type: in vivo; design: from tissue; host or cells: brain of male NMRI mice; conditions: male NMRI mice, 10 mg/kg; for crossing of the blood brain barrier: inferred from block of brain EphA4 phosphorylation; for EphA4 phosphorylation in vivo in mouse brain: i.v., sacrificed 25 minutes or 1 hour after dosing, FIG. 4
T1 sequence (Q03137 20-986): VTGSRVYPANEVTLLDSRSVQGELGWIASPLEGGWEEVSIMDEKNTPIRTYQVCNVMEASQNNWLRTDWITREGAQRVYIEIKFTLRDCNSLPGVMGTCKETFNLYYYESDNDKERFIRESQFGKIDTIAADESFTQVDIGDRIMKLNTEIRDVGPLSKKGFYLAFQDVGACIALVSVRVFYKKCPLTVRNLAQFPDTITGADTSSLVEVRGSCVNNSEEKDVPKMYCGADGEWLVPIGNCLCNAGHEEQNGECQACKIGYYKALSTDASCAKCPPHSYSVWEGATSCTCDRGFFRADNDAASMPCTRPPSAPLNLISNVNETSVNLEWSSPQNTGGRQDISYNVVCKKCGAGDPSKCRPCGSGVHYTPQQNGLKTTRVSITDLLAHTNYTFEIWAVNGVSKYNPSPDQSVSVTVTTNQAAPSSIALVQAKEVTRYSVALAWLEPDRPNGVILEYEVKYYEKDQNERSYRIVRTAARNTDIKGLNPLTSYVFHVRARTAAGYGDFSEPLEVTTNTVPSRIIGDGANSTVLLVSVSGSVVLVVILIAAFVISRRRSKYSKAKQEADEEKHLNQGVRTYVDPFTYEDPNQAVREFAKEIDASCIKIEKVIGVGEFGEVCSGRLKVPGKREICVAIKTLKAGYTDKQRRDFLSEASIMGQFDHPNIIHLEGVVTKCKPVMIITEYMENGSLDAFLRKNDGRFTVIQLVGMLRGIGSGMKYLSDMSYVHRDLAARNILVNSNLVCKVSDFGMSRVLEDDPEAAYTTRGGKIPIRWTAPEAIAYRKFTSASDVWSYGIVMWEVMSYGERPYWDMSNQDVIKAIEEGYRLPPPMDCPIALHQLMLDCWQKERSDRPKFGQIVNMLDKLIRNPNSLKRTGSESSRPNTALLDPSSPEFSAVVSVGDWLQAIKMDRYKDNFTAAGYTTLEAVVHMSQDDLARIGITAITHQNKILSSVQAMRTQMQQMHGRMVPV
Description: Animals were given an i.v dose of relevant compound and sacrificed 25 minutes or 1 hour after dosing (0.25 h or 1 h), the brains removed and subjected to EphA4 immunoprecipitation followed by a phospho-tyrosine Western blot. Four animals were used as controls and three-animals each were used per time point for each drug. From top to bottom, the compounds tested were Compound 1, Compound 7, and Compound 6.
Male NMRI mice were injected with relevant compounds at a dose of 10 mg/kg body weight and were sacrificed either 25 minutes or 1 hour following the dosing (0.25 h or 1 h shown in FIG. 4). The brains were removed and one half of each brain was weighed and homogenized in appropriate volume of lysis buffer for 30 seconds (10 seconds pulse and 10 seconds off—3 times). The homogenate was spun at 12,000 g for 30 minutes. Protein amounts were estimated for supernatants (using BCA) and equal amounts of protein for each condition were subjected to EphA4 immunoprecipitation followed by a phospho-tyrosine western blot. Four control animals were used and three experimental animals per time point were used for each of the compounds tested (Compounds 1, 2, 6, and 7)

[2] = test system: embryonic cortical neurons; test: In vitro assay for neurite outgrowth/axon regeneration: E16 cortical neurons on astrocyte monolayers; type: cell-based; conditions: 100 nM; immunofluorescence images, FIG. 2A
Description: This assay is used to assess neurite outgrowth inhibition of embryonic cortical neurons by Eph receptors expressed on astrocytes or neurite outgrowth inhibition of post-natal cortical neurons by ephrin ligand present in myelin. E16 (embryonic day 16) cortical neurons are plated onto confluent astrocyte monolayers plated in 4-well chamber slides. Pharmacological inhibitors, are added to the medium and the length of longest neurite from each neuron is measured under each condition (FIG. 2A depicts an example of neurons plated in the presence of Compound 1 and visualized with the neuronal marker, Tuj-1) and compared to average neurite length on astrocytes in the absence of any pharmacological agents. FIG. 2B depicts the quantitation of neurite outgrowth effects observed with Compound 6 and Compound 7 (all tested at 100 nM concentration) in cortical cultures plated on astrocytes.

EphA4 [3] = target: T1, EphA4; test: EphA4 autophosphorylation assay in primary astrocyte cultures (EphA4 immunoprecipitation, phospho-tyrosine Western); type: cell-based; design: Primary astrocyte cultures are established from neonatal mouse cortex; endogenous in cells; host or cells: primary astrocytes from neonatal mouse cortex; conditions: cells pre-treated with 100 nM; FIG. 1A
Description: FIG. 1A, lanes and 2 represent samples from cells treated with either control IgG-Fc or with the ligand ephrinB3-Fc. […] represent samples from cells that have been pre-treated with Compound 1 (100 nM) and are then stimulated with IgG-Fc or ephrinB3-Fc in the combined presence of the inhibitor (Compound I)(lanes 3, 4) or in its absence (lanes 5, 6). FIG. 1B, lanes 1 and 2 show EphA4 phosphorylation in control (untreated) and ephrinB3-Fc stimulated cells following serum starvation. All other lanes represent samples from cells stimulated with ephrinB3-Fc in the presence of varying concentrations (as indicated) of tested Eph inhibitors.
Primary astrocyte cultures are established from neonatal mouse cortex and purified so as to get about 95-98 pure astrocyte cultures. […] Cells are lysed, and the lysates subjected to EphA4 immunoprecipitation and subsequently analysed on Westerns for level of receptor phosphorylation using a phospho-tyrosine antibody.

astrocytes = test: In vitro assay for astrogliosis: astrocyte scratch wound (cytokine-induced migration); type: cell-based, mouse; conditions: relative distance of cell migration compared to control; FIG. 3
Description: The white bar represents the addition of Compound 6. The black bar represents no compounds added.
Assay Astrocytes are prepared from the cerebral cortex of neonatal C57BL/6 mice (P1-P2). Cells are maintained in Dulbecco's modified Eagle's medium with 10% FBS. 4-7 weeks old astrocytes are plated to confluence in 2 well chamber slides coated with poly-D-lysine for the scratch wound assay and serum starved. 48 hrs after serum starvation, the monolayer of astrocytes is scratched with sterile 200 μl tips and washed twice with PBS to get rid of cell debris. Conditioned medium (+/−cytokines) is added to the wounded astrocytes. The microscopic images of the scratch is captured at a magnification of 10× right after scratch and considered as time point 0.24 hrs, 48 hrs or 72 hrs after scratch, the same region of scratch is imaged and fixed with methanol containing, 1 μg/ml of DAPI to monitor migration and proliferation of astrocytes.

Molecule `CN1CCN(c2ccc(-c3cnn4c(N)c(-c5ccccc5Cl)cnc34)cc2)CC1` [Example 84, 6-(2-Chloro-phenyl)-3-[4-(4-methyl-piperazin-1-yl)-phenyl]-pyrazolo[1,5-a]-pyrimidin-7-ylamine] has a melting point of 197 to 200 °C.
Work on `Cc1nc2c(-c3cccc(N4CCN(C)CC4)c3)cnn2c(N)c1-c1cccc(Br)c1` [Example 91, 6-(3-Bromo-phenyl)-5-methyl-3-[3-(4-methyl-piperazin-1-yl)-phenyl]-pyrazol-o[1,5-a]pyrimidin-7-ylamine] yielded a melting point of 107 to 113 °C.
`COc1ccc(-c2cnn3c(N)c(-c4ccc(F)cc4)c(C)nc23)cc1` [Example 103, 6-(4-Fluoro-phenyl)-3-(4-methoxy-phenyl)-5-methyl-pyrazolo[1,5-a]pyrimidin-7-ylamine] gave a melting point of 243 to 244 °C.
With `COc1ccc(-c2cnn3c(N)c(-c4ccc(F)c(Cl)c4)c(C)nc23)cc1OC` [Example 101, 6-(3-Chloro-4-fluoro-phenyl)-3-(3,4-dimethoxy-phenyl)-5-methyl-pyrazolo[1,5-a]pyrimidin-7-ylamine] the melting point was 235 to 238 °C.
Molecule `CN(C)c1ccc(-c2cnn3c(N)c(-c4ccc(NS(=O)(=O)c5cccc(Cl)c5Cl)cc4)cnc23)cc1` [Example 17, N-{4-[7-Amino-3-(4-dimethylamino-phenyl)-pyrazolo[1,5-a]pyrimidin-6-yl]-phenyl}-2,3-dichloro-benzenesulfonamide] has a melting point of 143 to 146 °C.
With `COc1ccc(-c2cnn3c(N)c(-c4cccc(Cl)c4)c(C)nc23)cc1` [Example 95, 6-(3-Chloro-phenyl)-3-(4-methoxy-phenyl)-5-methyl-pyrazolo[1,5-a]pyrimidin-7-ylamine] the melting point was 171 to 172 °C.
For `CN1CCN(c2cccc(-c3cnn4c(N)c(Cc5ccccc5)cnc34)c2)CC1` [Example 98, 6-Benzyl-3-[3-(4-methyl-piperazin-1-yl)-phenyl]-pyrazolo[1,5-a]pyrimidin-7-ylamine], the melting point was 72 to 75 °C.
With `Cc1nc2c(-c3ccc(OCCN(C)C)cc3)cnn2c(N)c1-c1cccc(Cl)c1` [Compound 7, 6-(3-Chloro-phenyl)-3-[4-(2-dimethylamino-ethoxy)-phenyl]-5-methyl-1-pyrazolo[1,5-a]pyrimidin-7-ylamine] the “crossing of the blood brain barrier” value (EphA4 [1]) was “cross the blood brain barrier” and the “EphA4 phosphorylation in vivo in mouse brain” value (“EphA4 phosphorylation in vivo” for short) (EphA4 [1]) was “effectively block phosphorylation of EphA4 receptor in vivo”.
Work on `Cc1nc2c(-c3cccc(N4CCN(CCO)CC4)c3)cnn2c(N)c1-c1ccc(F)c(F)c1` [Example 108, 2-(4-{3-[7-Amino-6-(3,4-difluoro-phenyl)-5-methyl-pyrazolo[1,5-a]pyrimidin-3-yl]-phenyl}-piperazin-1-yl)-ethanol] yielded a melting point of 172 to 174 °C.
Work on `COc1ccc(-c2cnn3c(N)c(-c4ccc(F)c(Cl)c4)c(C)nc23)cc1` [Example 102, 6-(3-Chloro-4-fluoro-phenyl)-3-(4-methoxy-phenyl)-5-methyl-pyrazolo[1,5-a]-pyrimidin-7-ylamine] yielded a melting point of 224 to 227 °C.
`Cc1nc2c(-c3cccc(N4CCN(CCO)CC4)c3)cnn2c(N)c1-c1ccc(F)c(Cl)c1` [Compound 4, 2-(4-{3-[7-Amino-6-(3-chloro-4-fluoro-phenyl)-5-methyl-pyrazolo[1,5-a]pyrimidin-3-yl]-phenyl}-piperazin-1-yl)-ethanol] showed a melting point of 104 to 107 °C.
For `CCN(CC)C1CCN(c2cccc(-c3cnn4c(N)c(-c5cccc(Cl)c5)c(C)nc34)c2)CC1` [Compound 1, 6-(3-Chloro-phenyl)-3-[3-(4-diethylamino-piperidin-1-yl)-phenyl]-5-methyl-pyrazolo[1,5-a]pyrimidin-7-ylamine], the melting point was 163 to 168 °C, the “overcoming neurite outgrowth inhibition” value [2] was “able to overcome neurite outgrowth inhibition” and the “inhibition of EphA4 auto-phosphorylation (phospho-tyrosine Western blot)” value (EphA4 [3]) was “inhibition of EphA4 auto-phosphorylation”. The “crossing of the blood brain barrier” value (EphA4 [1]) was “cross the blood brain barrier” and the “EphA4 phosphorylation in vivo” value (EphA4 [1]) was “effectively block phosphorylation of EphA4 receptor in vivo”.
In the case of `Cc1nc2c(-c3cccc(N4CCN(C5CCN(C)CC5)CC4)c3)cnn2c(N)c1-c1cccc(Cl)c1` [Compound 5, 6-(3-Chloro-phenyl)-5-methyl-3-{3-[4-(1-methyl-piperidin-4-yl)-piperazin-1-yl]-phenyl}-pyrazolo[1,5-a]pyrimidin-7-ylamine], the melting point is reported as 180 to 185 °C.
In the case of `COc1ccc(-c2cnn3c(N)c(-c4cccc(Cl)c4)c(C)nc23)cc1OC` [Compound 3, 6-(3-Chloro-phenyl)-3-(3,4-dimethoxy-phenyl)-5-methyl-pyrazolo[1,5-a]pyrimidin-7-ylamine], the melting point is reported as 223 to 226 °C.
In the case of `CCN(CC)C1CCN(c2cccc(-c3cnn4c(N)c(-c5ccc(F)cc5)c(C)nc34)c2)CC1` [Example 112, 3-[3-(4-Diethylamino-piperidin-1-yl)-phenyl]-6-(4-fluoro-phenyl)-5-methyl-pyrazolo[1,5-a]pyrimidin-7-ylamine], the melting point is reported as 208 to 210 °C.
With `COc1ccc(-c2cnn3c(N)c(-c4cccc(Cl)c4)c(CN4CCNCC4)nc23)cc1OC` [Compound 6, 6-(3-Chloro-7-phenyl)-3-(3,4-dimethoxy-phenyl)-5-piperazin-1-ylmethyl-pyrazolo[1,5-a]pyrimidin-7-ylamine] the “astrocyte migration induced by cytokines (TGF-α, LIF, and IFN)” value (astrocytes) was “block astrocyte migration”, the “crossing of the blood brain barrier” value (EphA4 [1]) was “cross the blood brain barrier” and the “EphA4 phosphorylation in vivo” value (EphA4 [1]) was “effectively block phosphorylation of EphA4 receptor in vivo”.
With `CN1CCN(c2cccc(-c3cnn4c(N)c(-c5ccccc5Cl)cnc34)c2)CC1` [Example 85, 6-(2-Chloro-phenyl)-3-[3-(4-methyl-piperazin-1-yl)-phenyl]-pyrazolo[1,5-a]-pyrimidin-7-ylamine] the melting point was 200 to 203 °C.
Work on `COc1ccc(-c2cnn3c(N)c(-c4cccc(Cl)c4)c(CF)nc23)cc1OC` [Example 99, 6-(3-Chloro-phenyl)-3-(3,4-dimethoxy-phenyl)-5-fluoromethyl-pyrazolo[1,5-a]pyrimidin-7-ylamine] yielded a melting point of 228 to 230 °C.
`CN(C)c1ccc(-c2cnn3c(N)c(-c4ccc(OS(=O)(=O)c5ccc(Cl)cc5)cc4)cnc23)cc1` [Example 18, 4-Chloro-benzenesulfonic acid 4-[7-amino-3-(4-dimethylamino-phenyl)-pyrazolo[1,5-a]pyrimidin-6-yl]-phenyl ester] showed a melting point of 186 to 191.88 °C.
